The text below walks through data of patent US4039384A, “Creatinine amidohydrolase and creatine amidinohydrolase and process for producing them” (Noda Institute for Scientific Research, priority 1975, dated 1977).

Assay [1] has as its target T1, creatine amidinohydrolase of prior art (i) (Journal of General Microbiology, Vol. 14, pp. 351 to 365 (1956); Genus Pseudomonas) (Pseudomonas putida, UniProt P38488).
T1 sequence (P38488 1-403): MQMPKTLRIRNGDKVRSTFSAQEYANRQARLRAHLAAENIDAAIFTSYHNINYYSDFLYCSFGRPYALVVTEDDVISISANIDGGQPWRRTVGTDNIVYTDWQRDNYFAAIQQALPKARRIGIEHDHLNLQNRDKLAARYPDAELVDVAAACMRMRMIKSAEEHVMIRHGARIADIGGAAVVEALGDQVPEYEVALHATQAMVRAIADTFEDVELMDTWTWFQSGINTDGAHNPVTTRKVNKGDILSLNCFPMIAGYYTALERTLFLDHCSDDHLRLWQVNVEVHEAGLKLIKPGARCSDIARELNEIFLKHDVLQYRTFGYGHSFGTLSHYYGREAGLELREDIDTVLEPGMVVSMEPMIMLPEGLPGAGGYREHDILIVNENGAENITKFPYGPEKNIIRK
The following applies: cited from earlier work.

Assay [2] has as its target T2, creatine amidinohydrolase of this invention (from Flavobacterium U-188, Micrococcus luteus ATCC 398 or Corynebacterium U-41) (Flavobacterium sp. U-188, UniProt P19213).
T2 sequence (P19213 1-403): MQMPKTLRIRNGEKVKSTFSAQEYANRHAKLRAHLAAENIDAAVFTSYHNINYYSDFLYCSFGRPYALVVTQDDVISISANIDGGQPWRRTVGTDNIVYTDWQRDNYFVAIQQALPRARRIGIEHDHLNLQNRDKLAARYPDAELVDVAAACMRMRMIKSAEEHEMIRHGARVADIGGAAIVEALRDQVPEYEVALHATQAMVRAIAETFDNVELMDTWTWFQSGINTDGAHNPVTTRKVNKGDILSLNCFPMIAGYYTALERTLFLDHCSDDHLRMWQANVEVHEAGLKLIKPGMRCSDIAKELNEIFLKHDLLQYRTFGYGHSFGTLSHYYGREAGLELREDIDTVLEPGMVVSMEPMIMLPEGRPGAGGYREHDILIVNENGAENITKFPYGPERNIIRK
The assay is described as follows: Creatine amidinohydrolase activity, enzyme of this invention. In kind it is biochemical. The method, then: This enzyme has an ability to hydrolyze creatine into urea and sarcosine. […] 2.
To 0.8 ml of 0.1 M creatine solution are added 0.1 of 0.3 M phosphate buffer (pH 7.7) and 0.1 ml of a solution of this enzyme having an appropriate concentration, and the resulting mixture is reacted at 37° C. for 10 minutes. Then, 2 ml of 2% (W/V) p-dimethylaminobenzaldehyde solution (prepared by dissolving 2 g of p-dimethylaminobenzaldehyde into 100 ml of 99.5% ethanol, adding 15 ml of concentrated hydrochloric acid and diluting the mixture with distilled water to a 2 times greater quantity) is added, and the resulting mixture is allowed to stand at 25° C. for 30 minutes. Then, its absorbance (O. D. value) at 435 mμ is measured with photoelectric colorimeter. […] The quantity of enzyme necessary for producing 1 micromole of urea per one minute at 37° C. is taken as one unit.

The mark [3] stands for this setting: inhibitor final concentration 2 × 10^-2 M.
Where [4] appears, read: inhibitor final concentration 5 × 10^-2 M, pH 9.1.

Where two headings read alike, the source gives them in different places.

For the compound `[N-]=[N+]=[N-]` [Azide], the figures for the “Percentage inhibition of creatine removal” value (“Percentage inhibition” below) in assay [1] (setting [3]) and in assay [2] (setting [3]) were 18% and 0%, respectively.
For `O=C(O)CI` [Iodoacetate], the “Percentage inhibition” value in assay [1] (inhibitor final concentration 10^-2 M) was 20%. Besides, the inhibition – broadly, the percentage by which the read-out fell short of the control – at 10000 µM in assay [2] (read-out: Percentage inhibition of creatine removal) amounted to 0%.
Borate: the entries for the “Percentage inhibition” value in assay [1] (setting [4]) and in assay [2] (setting [4]) were 80% and 40%, respectively.
